Calls of active or inactive are those of the source. The calls are words filed in the database; no cut-off is given here.
Assays:
[1] = Selectivity index, ratio of IC50 for antiproliferative activity against HEK293T cells assessed as reduction in cell viability to MIC for antibacterial activity against methicillin-resistant Staphylococcus aureus assessed as bacterial growth inhibition; type: toxicity, cell-based; conditions: human, read-out: Selectivity Index
Cell membrane = test: Disruption of membrane integrity in methicillin-resistant Staphylococcus aureus assessed as increase in fluorescence intensity measured for 120 mins by confocal microscopic analysis; type: cell membranes
[2] = Hemolytic activity in mouse RBC assessed as hemolysis at 320 uM incubated for 1 hrs by spectrophotometric analysis relative to control; type: toxicity, cell-based, Erythrocyte; conditions: mouse red blood cells (erythrocytes), read-out: %max
Staphylococcus aureus [3] = test: Antibacterial activity against methicillin-resistant Staphylococcus aureus 18878 assessed as bacterial growth inhibition incubated for 24 hrs by CLSI based micro-broth dilution assay; type: functional
[4] = Stability in mouse blood plasma measured for 24 hrs by RP-HPLC analysis; type: ADME, cell-free
Staphylococcus aureus [5] = test: Antibacterial activity against Methicillin-resistant Staphylococcus aureus infected in ICR mouse skin infection model assessed as reduction in inflammatory infiltration at 40 mg/kg, sc by H and E staining based microscopic analysis; type: functional, organism-based
[6] = Stability in methicillin-resistant Staphylococcus aureus supernatants measured for 12 hrs by RP-HPLC analysis; type: physicochemical; conditions: read-out: Stability
Escherichia coli = test: Antibacterial activity against Escherichia coli assessed as bacterial growth inhibition incubated for 24 hrs by CLSI based micro-broth dilution assay; type: functional
Staphylococcus aureus [7] = test: Antibacterial activity against methicillin-resistant Staphylococcus aureus 19167 assessed as bacterial growth inhibition incubated for 24 hrs by CLSI based micro-broth dilution assay; type: functional
Staphylococcus aureus [8] = test: Drug resistance, ratio of MIC for methicillin-resistant Staphylococcus aureus after 1 week exposure to MIC for methicillin-resistant Staphylococcus aureus during first exposure; type: functional; conditions: time 1 weeks
Staphylococcus aureus [9] = test: Drug resistance, ratio of MIC for methicillin-resistant Staphylococcus aureus after 7 days exposure to MIC for methicillin-resistant Staphylococcus aureus during first exposure; type: functional; conditions: time 7 day
Staphylococcus aureus [10] = test: Antibacterial activity against Methicillin-resistant Staphylococcus aureus infected in ICR mouse skin infection model assessed as log reduction in bacterial count at 40 mg/kg, sc measured upto 10 days; type: functional; conditions: time <= 10 day
Porphyromonas gingivalis = test: Antibacterial activity against Porphyromonas gingivalis assessed as bacterial growth inhibition incubated for 24 hrs by CLSI based micro-broth dilution assay; type: functional

Substance | selectivity ratio [1] | Activity (Cell membrane) | hemolysis at 1 h, 320 µM [2] [%] | MIC (Staphylococcus aureus [3]) [µM] | Stability [4] | Activity (Staphylococcus aureus [5]) | remaining at 12 h [6] [%] | MIC (Escherichia coli) [µM] | MIC (Staphylococcus aureus [7]) [µM] | Ratio (Staphylococcus aureus [8]) | Ratio (Staphylococcus aureus [9]) | log(activity) (Staphylococcus aureus [10]) | MIC (Porphyromonas gingivalis) [µM]
H-LARVARRVIRFIRRAW-NH2 | 107 | Active | 8.58 | 6 | Unstable | Active | 50 | > 48 | 6 | 4 | 100 | 5.9 | 12
H-RRRLARRLIFFIRRAW-NH2 | 107 | Active | 8.97 | 6 | Unstable | Active | 25 | > 48 | 6 | 8 | 100 | 5.8 | 12

— ChEMBL document CHEMBL5537162, “Development of Antibacterial Peptides with Membrane Disruption and Folate Pathway Inhibitory Activities against Methicillin-Resistant Staphylococcus aureus” (J Med Chem, 2024)
